From patent US12473277B2, “Solid forms of a modulator of hemoglobin” (GLOBAL BLOOD THERAPEUTICS, INC., priority 2021, dated 2025)
Structures can show the parent of a compound that is named as a salt.

Legend:
[1] = Dynamic vapor sorption/desorption (DVS) isotherm; format: physicochemical; settings: for hygroscopicity indicated by DVS isotherm: 5% to 95% RH, 10% RH increments, nitrogen purge; for weight gain through the sorption cycle / weight loss upon desorption / weight gain and loss through the sorption/desorption cycle: DVS; for weight gain through the sorption cycle / weight gain and loss through the sorption/desorption cycle: 5 to 95% RH; for weight loss upon desorption: 95 to 5% RH; for material recovered from the DVS experiment, by XRPD: after DVS sorption/desorption cycle
Method: Automated vapor sorption (VS) data were collected on a Surface Measurement System DVS Intrinsic instrument or a VTI SGA-100 instrument. Samples were not dried prior to analysis. Sorption and desorption data were collected over a range from 5% to 95% relative humidity (RH) at 10% RH increments under a nitrogen purge. The equilibrium criterion used for analysis was less than 0.0100% weight change in 5 minutes with a maximum equilibration time of 3 hours. Data were not corrected for the initial moisture content of the samples.

[2] = Physical stability of solid forms under humidity, temperature or vacuum stress (XRPD/observation); format: physicochemical
Method: XRPD figures were generated using SSCI Pattern Match 3.0.4, unvalidated software. XRPD patterns were collected with a PANalytical X'Pert PRO MPD or a PANalytical Empyrean diffractometer using an incident beam of Cu radiation produced using an Optix long, fine-focus source. An elliptically graded multilayer mirror was used to focus Cu Kα X-rays through the specimen and onto the detector. Prior to the analysis, a silicon specimen (NIST SRM 640e or NIST SRM 6400 was analyzed to verify the observed position of the Si 111 peak is consistent with the NIST-certified position. A specimen of the sample was sandwiched between 3-μm-thick films and analyzed in transmission geometry. A beam-stop, short antiscatter extension, and antiscatter knife edge were used to minimize the background generated by air. Soller slits for the incident and diffracted beams were used to minimize broadening and asymmetry from axial divergence. Diffraction patterns were collected using a scanning position-sensitive detector (X'Celerator) located 240 mm from the specimen and Data Collector software v. 2.2b or v. 5.5.

physchem = settings: water
[3] = Binary interconversion slurry experiments between Compound I Form I and Compound I Material II; format: physicochemical; settings: room temperature slurries
Excerpt: Binary interconversion slurry experiments between Compound I Form I and Compound I Material II in different solvent systems at room temperature are summarized in Table 2. Saturated solutions were generated and then added to mixtures composed of approximately equivalent quantities of the two polymorphs. The samples were slurried for several days and the solids harvested and analyzed by XRPD.

## O=Cc1c(O)cccc1OC[C@@H]1COCCN1C(=O)c1cccnc1CCO [amorphous Compound I, (S)-2-hydroxy-6-((4-(2-(2-hydroxyethyl)nicotinoyl)morpholin-3-yl)methoxy)benzaldehyde]
[1]
  hygroscopicity indicated by DVS isotherm: significant hygroscopicity
  weight gain through the sorption cycle: approximately 10%
  weight loss upon desorption: 7%
  material recovered from the DVS experiment, by XRPD: remained amorphous

## O=C(O)C(=O)O.O=Cc1c(O)cccc1OC[C@@H]1COCCN1C(=O)c1cccnc1CCO [Compound I Oxalate Form B, (S)-2-hydroxy-6-((4-(2-(2-hydroxyethyl)nicotinoyl)morpholin-3-yl)methoxy)benzaldehyde oxalate]
[2]; 90% RH, ambient temperature, 11 days
  physical stability under high humidity (XRPD): still predominately Compound I Oxalate Form B
physchem
  solubility: > 134 mg/mL

## O=Cc1c(O)cccc1OC[C@@H]1COCCN1C(=O)c1cccnc1CCO.O=S(=O)(O)c1cccc2c(S(=O)(=O)O)cccc12 [Compound I Napadisylate Form A, (S)-2-hydroxy-6-((4-(2-(2-hydroxyethyl)nicotinoyl)morpholin-3-yl)methoxy)benzaldehyde napadisylate]
[2]; 43° C. under vacuum, within 4 days
  physical stability under vacuum (XRPD): not physically stable

## O=Cc1c(O)cccc1OC[C@@H]1COCCN1C(=O)c1cccnc1CCO [Compound I HCl Form A]
[1]
  hygroscopicity indicated by DVS isotherm: significant hygroscopicity
  weight gain through the sorption cycle: 3%
  weight loss upon desorption: 3.3%
  material recovered from the DVS experiment, by XRPD: remained Compound I HCl Form A
[2]; 40° C./75% RH for 27 days
  physical stability, XRPD pattern after stress: no changes were observed in the XRPD pattern

## (S)-2-hydroxy-6-((4-(2-(2-hydroxyethyl)nicotinoyl)morpholin-3-yl)methoxy)benzaldehyde edisylate [Compound I Edisylate Form A]
[2]; ambient conditions, relative humidity approximately 57%
  physical stability upon exposure to ambient conditions: very hygroscopic and not stable under ambient conditions
[2]; damp sample, 43° C. vacuum oven
  physical stability on drying in vacuum oven (XRPD): physical instability

## O=Cc1c(O)cccc1OC[C@@H]1COCCN1C(=O)c1cccnc1CCO [Compound I Material II, (S)-2-hydroxy-6-((4-(2-(2-hydroxyethyl)nicotinoyl)morpholin-3-yl)methoxy)benzaldehyde]
[1]
  hygroscopicity indicated by DVS isotherm: significant hygroscopicity above 85% RH
  weight gain and loss through the sorption/desorption cycle: approximately 3.4%
  material recovered from the DVS experiment, by XRPD: identified as Compound I Material II

## (S)-2-hydroxy-6-((4-(2-(2-hydroxyethyl)nicotinoyl)morpholin-3-yl)methoxy)benzaldehyde edisylate [Compound I Edisylate Material B]
[2]; 44° C. under vacuum
  physical stability under vacuum (XRPD): additional unidentified peaks

## CCS(=O)(=O)O.O=Cc1c(O)cccc1OC[C@@H]1COCCN1C(=O)c1cccnc1CCO [Compound I Esylate Form A, (S)-2-hydroxy-6-((4-(2-(2-hydroxyethyl)nicotinoyl)morpholin-3-yl)methoxy)benzaldehyde esylate]
[2]; 44° C. under vacuum
  physical stability under vacuum (XRPD): not physically stable

## CCS(=O)(=O)O.O=Cc1c(O)cccc1OC[C@@H]1COCCN1C(=O)c1cccnc1CCO [Compound I Esylate Form B, (S)-2-hydroxy-6-((4-(2-(2-hydroxyethyl)nicotinoyl)morpholin-3-yl)methoxy)benzaldehyde esylate]
[2]; 90% relative humidity, ambient temperature
  physical stability under high humidity: deliquesced

## O=Cc1c(O)cccc1OC[C@@H]1COCCN1C(=O)c1cccnc1CCO.O=S(=O)(O)O [Compound I Sulfate Form A, (S)-2-hydroxy-6-((4-(2-(2-hydroxyethyl)nicotinoyl)morpholin-3-yl)methoxy)benzaldehyde sulfate]
[2]; 43° C. under vacuum for 2 days
  physical stability under vacuum (XRPD): physically stable
[2]; 90% RH, ambient temperature, within 1 day
  physical stability under high humidity: deliquesces
physchem
  solubility: > 87 mg/mL

## O=Cc1c(O)cccc1OC[C@@H]1COCCN1C(=O)c1cccnc1CCO [Compound I Form I, (S)-2-hydroxy-6-((4-(2-(2-hydroxyethyl)nicotinoyl)morpholin-3-yl)methoxy)benzaldehyde]
[1]
  hygroscopicity indicated by DVS isotherm: low hygroscopicity
  weight gain and loss through the sorption/desorption cycle: 0.7%
  material recovered from the DVS experiment, by XRPD: identified as Compound I Form I
[3]
  relative thermodynamic stability from interconversion studies: most thermodynamically stable form relative to Material II
